This is an account of results in patent US11395829B2, “Inhibitors of metallo-beta-lactamases produced by multidrug-resistant bacteria” (MYONGJI UNIVERSITY INDUSTRY AND ACADEMIA COOPERATION …, priority 2019, dated 2022).

Format in all cases: biochemical
One experiment deals with NDM-1 (Klebsiella pneumoniae, UniProt C7C422). In words: NDM-1 inhibition assay with nitrocefin as substrate. The procedure:
The screened seven compounds were dissolved in 100% DMSO at 10 mM. More diluted stocks were prepared as necessary. NDM-1 activity was determined by monitoring the change of absorbance at 482 nm using the characteristic molecular extinction coefficient (Δε482=15,900 M^−1 cm^−1) of nitrocefin (NCF) (Oxoid, Hampshire, UK) by a Shimazu UV-1650PC spectrophotometer. Up to 5% DMSO, no influence on the enzyme activities of MBLs was observed. The assays were conducted in 50 mM MES (pH 7.0) containing an enzyme (263 nM), 100 μM ZnCl2, and 100 μg/mL bovine serum albumin. After 5 min of pre-incubation of the purified enzyme and inhibitor at 30° C., the enzymatic reaction was started by adding nitrocefin (100 μM). Residual velocities were determined after 5 minutes. The first 120 s of each reaction was used to measure initial rates. Data were evaluated using Microsoft Excel. Concentration-dependent inhibition of NDM-1 was measured using different concentrations of seven compounds resulting from two-fold dilution series. Reaction progress at every concentration of seven compounds was measured in triplicates. IC50 values were calculated using 4-parameter log fits using XL Fit curve fitting software (www.idbs.com) for Excel using the following equation: […]
where y is the remaining enzyme activity (in %) and x is the corresponding concentration. The fitted IC50 parameter is defined as the concentration giving a response half way between the fitted top (B) and bottom (A) of the curve. […]
To investigate the inhibitory effects of novel compounds (DCPBA, ACP-DCPBA, and CHP-DCPBA) against four clinically-important subclass B1 MBLs (NDM-1, IMP-1, VIM-2, and GIM-1), subclass B2 MBL (CphA), and subclass B3 MBL (GOB-1), the IC50 values for them were determined (Table 4). […] Activities of MBLs were determined by monitoring the change of absorbance at 482 nm. […] Data were evaluated using Microsoft Excel. Reaction progress at every concentration of DCPBA (ACP-DCPBA or CHP-DCPBA) was measured in triplicates.

The next experiment concerns the target IMP-1 (Serratia marcescens, UniProt P52699). Description: IMP-1 inhibition assay with nitrocefin as substrate. Conditions: Subclass B1 MBL, enzyme 891 nM, 100 μM nitrocefin, 5 minute pre-incubation. From the text:
(§1) The blaNDM-1 gene (GenBank ID: FN396876) from K. pneumoniae clinical isolate, blaIMP-1 gene (GenBank ID: S71932) from Acinetobacter baumannii clinical isolate, and blaVIM-2 gene (GenBank ID: AF191564) from Citrobacter freundii clinical isolate were cloned after PCR amplification with primer pairs (Table 3) and then sequenced. Those three clinical isolates were collected from a university hospital in the Republic of Korea. Three DNA templates encoding blaGIM-1 gene (GenBank ID: AJ620678), blacphA gene (GenBank ID: X57102), and blaGOB-1 gene (GenBank ID: AF090141), which are codon optimized for E. coli, were synthesized and purchased from IDT (Integrated DNA Technologies, Coralville, Iowa, USA). The DNA templates were amplified by PCR using suitable primer pairs (Table 3). The amplified DNA and pET-30a(+) vector (Novagen, Madison, Wis., USA) were double-digested with NdeI and XhoI, with digested DNA then ligated into the digested vector. After verifying the DNA sequences, the plasmids, pET-30a(+)/His6-blaNDM-1, pET-30a(+)/His6-blaIMP-1, pET-30a(+)/His6-blaVIM-2, pET-30a(+)/His6-blaGIM-1, pET-30a(+)/His6-blacphA, and pET-30a(+)/His6-blaGOB-1 were individually transformed into E. coli BL21 (DE3) cells. Each of the histidine-tagged proteins, NDM-1, IMP-1, VIM-2, GIM-1, CphA, and GOB-1 were prepared as previously described (Park, et al., J. Glob. Antimicrob. Resist., 14, 302-305 (2018)).
(§2) To investigate the inhibitory effects of novel compounds (DCPBA, ACP-DCPBA, and CHP-DCPBA) against four clinically-important subclass B1 MBLs (NDM-1, IMP-1, VIM-2, and GIM-1), subclass B2 MBL (CphA), and subclass B3 MBL (GOB-1), the IC50 values for them were determined (Table 4). Compounds (DCPBA, ACP-DCPBA, and CHP-DCPBA) were dissolved in 100% DMSO at 10 mM. Activities of MBLs were determined by monitoring the change of absorbance at 482 nm. Up to 5% DMSO, no influence on the enzyme activities of MBLs was observed. […] Data were evaluated using Microsoft Excel. Reaction progress at every concentration of DCPBA (ACP-DCPBA or CHP-DCPBA) was measured in triplicates.

The next experiment has as its target VIM-2 (Pseudomonas aeruginosa, UniProt Q9K2N0). Description: VIM-2 inhibition assay with nitrocefin as substrate.
Source text: as §1, §2

A further experiment has as its target GIM-1 (Pseudomonas aeruginosa, UniProt Q704V1). In words: GIM-1 inhibition assay with nitrocefin as substrate.
Source text: as §1, §2

For another experiment, the target named is CphA (Aeromonas hydrophila, UniProt P26918). In words: CphA inhibition assay with nitrocefin as substrate. Conditions: for IC50 of CphA relative to that for DCPBA: fold lower than DCPBA.
Source text: as §1
To investigate the inhibitory effects of novel compounds (DCPBA, ACP-DCPBA, and CHP-DCPBA) against four clinically-important subclass B1 MBLs (NDM-1, IMP-1, VIM-2, and GIM-1), subclass B2 MBL (CphA), and subclass B3 MBL (GOB-1), the IC50 values for them were determined (Table 4). Compounds (DCPBA, ACP-DCPBA, and CHP-DCPBA) were dissolved in 100% DMSO at 10 mM. Activities of MBLs were determined by monitoring the change of absorbance at 482 nm. Up to 5% DMSO, no influence on the enzyme activities of MBLs was observed. Each enzyme (NDM-1, 263 nM; IMP-1, 891 nM; VIM-2, 81 nM; GIM-1, 662 nM; CphA, 157 nM; GOB-1, 2.69 μM) was mixed with 100 μM nitrocefin after a 5 minute pre-incubation with compounds (DCPBA, ACP-DCPBA, and CHP-DCPBA). The first 120 s of each reaction was used to measure initial rates. Data were evaluated using Microsoft Excel. Reaction progress at every concentration of DCPBA (ACP-DCPBA or CHP-DCPBA) was measured in triplicates.

The target in a further experiment is GOB-1 (Elizabethkingia meningoseptica, UniProt Q9RB00). Description: GOB-1 inhibition assay with nitrocefin as substrate. The following applies: Subclass B3 MBL, enzyme 2.69 μM, 100 μM nitrocefin, 5 minute pre-incubation.
Source text: as §1, §2

The mark [1] stands for this setting: Subclass B1 MBL, enzyme 263 nM, 100 μM nitrocefin, 5 minute pre-incubation, read-out: IC50 NDM-1.

Read-outs that look alike come from different tables or passages of the source.

For orientation: IC50 means the concentration at which inhibition is half-maximal.

GIM-1, sequence (Q704V1 19-250): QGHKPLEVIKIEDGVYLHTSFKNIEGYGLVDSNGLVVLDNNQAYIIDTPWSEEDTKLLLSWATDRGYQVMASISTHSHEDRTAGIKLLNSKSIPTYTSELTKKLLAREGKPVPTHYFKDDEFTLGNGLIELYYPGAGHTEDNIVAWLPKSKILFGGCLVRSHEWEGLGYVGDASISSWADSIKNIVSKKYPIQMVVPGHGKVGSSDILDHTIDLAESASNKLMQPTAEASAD
IMP-1, sequence (P52699 21-246 limits assumed): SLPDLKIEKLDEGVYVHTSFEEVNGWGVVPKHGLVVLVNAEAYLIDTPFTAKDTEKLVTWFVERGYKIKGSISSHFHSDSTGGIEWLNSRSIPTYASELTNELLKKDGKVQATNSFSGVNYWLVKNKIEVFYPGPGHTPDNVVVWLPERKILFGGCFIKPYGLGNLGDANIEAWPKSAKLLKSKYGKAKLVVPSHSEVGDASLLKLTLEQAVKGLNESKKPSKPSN
GOB-1, sequence (Q9RB00 entry or part of it): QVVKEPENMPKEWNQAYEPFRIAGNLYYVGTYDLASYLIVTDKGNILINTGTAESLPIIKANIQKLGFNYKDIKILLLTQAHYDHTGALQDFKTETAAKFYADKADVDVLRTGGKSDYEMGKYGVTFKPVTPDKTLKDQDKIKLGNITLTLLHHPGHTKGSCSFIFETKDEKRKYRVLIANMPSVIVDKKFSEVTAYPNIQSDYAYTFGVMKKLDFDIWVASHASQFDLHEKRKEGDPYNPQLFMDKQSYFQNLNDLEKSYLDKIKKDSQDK
NDM-1, sequence (C7C422 30-270 limits assumed, looked up): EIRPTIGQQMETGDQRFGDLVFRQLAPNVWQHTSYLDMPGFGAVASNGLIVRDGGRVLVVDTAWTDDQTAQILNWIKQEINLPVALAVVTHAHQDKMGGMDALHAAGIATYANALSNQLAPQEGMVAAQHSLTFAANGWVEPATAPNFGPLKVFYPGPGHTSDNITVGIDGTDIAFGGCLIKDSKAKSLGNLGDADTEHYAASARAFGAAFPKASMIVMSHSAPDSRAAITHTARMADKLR
CphA, sequence (P26918 28-254): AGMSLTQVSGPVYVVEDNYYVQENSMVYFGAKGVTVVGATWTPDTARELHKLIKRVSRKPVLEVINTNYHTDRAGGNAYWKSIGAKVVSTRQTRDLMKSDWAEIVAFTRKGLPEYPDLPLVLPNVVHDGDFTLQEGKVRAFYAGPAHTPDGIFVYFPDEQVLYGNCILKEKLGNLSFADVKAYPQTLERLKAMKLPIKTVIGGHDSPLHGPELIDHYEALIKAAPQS

In the case of `Nc1ccc(Oc2c(Cl)cc(B(O)O)cc2Cl)cc1Cl` [ACP-DCPBA, (4-(4-amino-3-chlorophenoxy)-3,5-dichlorophenyl)boronic Acid], the IC50 amounted to 78.78 ± 0.01 µM at NDM-1 (setting [1]); 738.41 ± 0.01 µM on IMP-1; 22.78 ± 0.01 µM at VIM-2; 144.64 ± 0.01 µM against GIM-1; 90.19 ± 0.01 µM against CphA; 790.24 ± 0.02 µM against GOB-1. In addition, the “IC50 of CphA relative to that for DCPBA” value on CphA is on record as “six-fold lower”.
As for `OB(O)c1cc(Cl)c(Oc2ccc(Cl)cc2O)c(Cl)c1` [CHP-DCPBA, (3,5-dichloro-4-(4-chloro-2-hydroxyphenoxy)phenyl)boronic acid], the IC50 on NDM-1 (setting [1]) was found to be 37.77 ± 0.01 µM; on IMP-1, 468.3 ± 0.01 µM; on VIM-2, 15.15 ± 0.01 µM; at GIM-1 (Subclass B1 MBL, enzyme 662 nM, 100 μM nitrocefin, 5 minute pre-incubation, read-out: IC50 GIM-1) it was 81.35 ± 0.03 µM; at CphA (Subclass B2 MBL, enzyme 157 nM, 100 μM nitrocefin, 5 minute pre-incubation, read-out: IC50 CphA), 80.81 ± 0.01 µM; against GOB-1 it was 468.5 ± 0.01 µM. Besides, at CphA, the “IC50 of CphA relative to that for DCPBA” value is recorded as “six-fold lower”.
Regarding `OB(O)c1cc(Cl)cc(Cl)c1` [Compound 1, 3,5-Dichlorophenylboronic Acid], the IC50 came out at 79.9 µM on NDM-1 (NDM-1 263 nM, nitrocefin 100 μM, 50 mM MES pH 7.0, 5 min pre-incubation at 30° C., read-out: IC50 values on NDM-1 of the screened compounds); 738.88 ± 0.01 µM on IMP-1; 27.33 ± 0.01 µM at VIM-2; 144.64 ± 0.01 µM at GIM-1; 530.87 ± 0.02 µM at CphA; 798.9 ± 0.02 µM against GOB-1.
